PMC10714399, “Open Source Antibiotics: Simple Diarylimidazoles Are Potent against Methicillin-Resistant Staphylococcus aureus” (ACS Infectious Diseases, 2023)
Values after ≈ are worked out from the molar mass of the structure shown. Like-named read-outs stand apart in the source and are kept apart here.

Tests used:
VSE = assay: In vitro antibacterial activity, MIC, VSE; type: cell-based
[1] = system: Staphylococcus aureus ATCC 43300 MRSA; assay: CO-ADD antibacterial assay (growth inhibition, MIC), MRSA; type: cell-based; conditions: read-out: MRSA MIC (CO-ADD)
Experimental: Hit Confirmation of active compounds by whole cell growth inhibition assays was conducted as an 8-point dose response to determine the Minimum Inhibitory Concentration (MIC), in duplicate (n=2). The inhibition of growth is measured against those microorganisms that […]
Included in the Hit Confirmation were 5 bacteria: Escherichia coli, Klebsiella pneumoniae, Acinetobacter baumannii, Pseudomonas aeruginosa and Staphylococcus aureus, and 2 fungi Candida albicans and Cryptococcus neoformans. […]
Assay Parameters Bacteria Fungi HEK293 Haemolysis […]
Duplicate (n=2) Duplicate (n=2) Duplicate (n=2) Duplicate (n=2)
QC Control MIC: Control MIC: Control CC50: Control HC10:
Non-Binding Non-Binding TC, 384-well Polypropylene
Plates Surface (NBS), Surface (NBS), black wall/clear 384-well and 384-well plate 384-well plate bottom polystyrene 384-
Cation-adjusted Yeast Nitrogen DMEM
Media Mueller Hinton Base supplemented 0.9% NaCl
Hit Confirmation outcomes are detailed in individual Project reports, personalised for each Project Submission for each CO-ADD user.
Please see your data sheet with file extension P0XXX_HC_data.xlsx, for example CO-ADD Project P0100, P0100_HC_data.xlsx
Study: HC_data ID: HC-Procedures & Materials
Date: Last updated June 2018 Confidential Page 3 of 11
(1 picture or pasted object on this page, not shown here)
Samples were provided by the collaborator and stored frozen at -20 °C. Samples were prepared in DMSO and water to a final testing concentration of 32 µg/mL or 20 µM (unless otherwise indicated in the data sheet) and serially diluted 1:2 fold for 8 times. Each sample concentration was prepared in 384-well plates, non-binding surface plate (NBS; Corning 3640) for each bacterial/fungal strain, tissue-culture treated (TC-treated; Corning 3712/3764) black for mammalian cell types and polypropylene 384-well (PP; Corning 3657) for haemolysis assays, all in duplicate (n=2), and keeping the final DMSO concentration to a maximum of 0.5%. All the sample preparation was done using liquid handling robots. […]
detailed in the Data sheet for the individual Project.
All bacteria were cultured in Cation-adjusted Mueller Hinton broth (CAMHB) at 37 °C overnight. A sample of each culture was then diluted 40-fold in fresh broth and incubated at 37 °C for 1.5-3 h. The resultant mid-log phase cultures were diluted (CFU/mL measured by OD600), then added to each well of the compound containing plates, giving a cell density of 5×10^5 CFU/mL and a total volume of 50 µL. All the plates were covered and incubated at 37 °C for 18 h without shaking.
Inhibition of bacterial growth was determined measuring absorbance at 600 nm (OD600), using a Tecan M1000 Pro monochromator plate reader. The percentage of growth inhibition was calculated for each well, using the negative control (media only) and positive control (bacteria without inhibitors) on the same plate as references.
The percentage of growth inhibition was calculated for each well, using the negative control (media only) and positive control (bacteria without inhibitors) on the same plate. The MIC […]
by an inhibition ≥ 80%. In addition, the maximal percentage of growth inhibition is reported as DMax, indicating any compounds with partial activity.
Date: Last updated June 2018 Confidential Page 5 of 11
Material Code Brand/Supplier Cat No.
Compound preparation plate, Polypropylene PP Corning 3364
Assay Plates – Antimicrobial
Non-binding surface NBS 384w Corning 3640
Assay Plates – Cytotoxicity
Tissue culture treated Black/Clear bottom 384w Corning 3712
Assay Plates - Haemolysis PP-Haem Corning 3657 […]
Growth media - bacteria CAMHB Bacto Laboratories 212322
Culture agar - fungi YPD Becton Dickinson 242720
Growth media - fungi YNB Becton Dickinson 233520
Resazurin Sigma-Aldrich R7017
Dulbecco's Modified Eagle Medium DMEM Life Technologies 11995-073
Foetal Bovine Serum FBS Bovogen FFBS-500
0.9% NaCl Saline Baxter AHF7124
Sample Name Sample ID MW Conc. Solvent Source […]

Row | SMILES | MIC (VSE; read-out: VSE MIC) [µg/mL] | MIC (VSE; read-out: VSE MIC (UCL)) [µg/mL] | MIC [1] [µg/mL]
1 | c1ccc(-c2nc3n(c2-c2ccc4sccc4c2)CCC3)nc1 [compound 822] | 4 (≈ 12.6 µM) | – | –
2 | c1ccc(-c2nc3n(c2-c2ccc4sccc4c2)CCC3)nc1 [OSA_000822] | – | 4 (≈ 12.6 µM) | 2 (≈ 6.3 µM)
3 | c1ccc(-c2nc3n(c2-c2ccc4occc4c2)CCC3)nc1 [compound 821] | – | – | 4 (≈ 13.3 µM)
